Data: the CheMixHub ionic liquid set
± gives the uncertainty stated by the source.

Assay: xn = mol fraction of the nth substance listed

CCCC[n+]1ccn(C)c1.CS(=O)(=O)[O-] + O
viscosity (298.15 K, 101 kPa, x2 = 0.6542): 31.9 ± 1.5 mPa·s
viscosity (298.15 K, 101 kPa, x2 = 0.7014): 25.2 ± 1.2 mPa·s
viscosity (298.15 K, 101 kPa, x2 = 0.7494): 19.09 ± 0.9 mPa·s
electrical conductivity (298.15 K, 101 kPa, x2 = 0.796): 1.23 ± 0.061 S/m
electrical conductivity (298.15 K, 101 kPa, x2 = 0.951): 4.06 ± 0.2 S/m
viscosity (298.15 K, 101 kPa, x2 = 0.975): 1.643 ± 0.077 mPa·s
electrical conductivity (299.15 K, 101 kPa, x1 = 0.008): 2.11 ± 0.11 S/m
electrical conductivity (299.15 K, 101 kPa, x2 = 0.892): 2.96 ± 0.15 S/m
electrical conductivity (299.15 K, 101 kPa, x2 = 0.951): 4.12 ± 0.21 S/m
electrical conductivity (300.15 K, 101 kPa, x1 = 0.004): 1.24 ± 0.062 S/m
electrical conductivity (301.15 K, 101 kPa, x2 = 0.861): 2.53 ± 0.13 S/m
electrical conductivity (302.15 K, 101 kPa, x2 = 0.861): 2.61 ± 0.13 S/m
electrical conductivity (305.15 K, 101 kPa, x1 = 0.004): 1.37 ± 0.068 S/m
electrical conductivity (305.15 K, 101 kPa, x2 = 0.861): 2.84 ± 0.14 S/m
electrical conductivity (306.15 K, 101 kPa, x1 = 0.004): 1.4 ± 0.07 S/m
electrical conductivity (307.15 K, 101 kPa, x1 = 0.008): 2.51 ± 0.13 S/m
electrical conductivity (308.15 K, 101 kPa, x1 = 0.019): 4.06 ± 0.2 S/m
electrical conductivity (308.15 K, 101 kPa, x2 = 0.861): 3.08 ± 0.15 S/m
electrical conductivity (308.15 K, 101 kPa, x2 = 0.968): 4.94 ± 0.25 S/m
electrical conductivity (309.15 K, 101 kPa, x2 = 0.968): 5.03 ± 0.25 S/m
electrical conductivity (310.15 K, 101 kPa, x1 = 0.019): 4.22 ± 0.21 S/m
electrical conductivity (310.15 K, 101 kPa, x2 = 0.861): 3.25 ± 0.16 S/m
electrical conductivity (310.15 K, 101 kPa, x2 = 0.892): 4.03 ± 0.2 S/m
electrical conductivity (310.15 K, 101 kPa, x2 = 0.968): 5.11 ± 0.26 S/m
electrical conductivity (311.15 K, 101 kPa, x2 = 0.861): 3.35 ± 0.17 S/m
electrical conductivity (313.15 K, 101 kPa, x2 = 0.892): 4.42 ± 0.22 S/m
viscosity (313.15 K, 101 kPa, x2 = 0.9004): 3.71 ± 0.2 mPa·s
electrical conductivity (315.15 K, 101 kPa, x2 = 0.968): 5.63 ± 0.28 S/m
electrical conductivity (316.15 K, 101 kPa, x2 = 0.951): 6.44 ± 0.32 S/m
electrical conductivity (317.15 K, 101 kPa, x1 = 0.004): 1.7 ± 0.085 S/m
electrical conductivity (317.15 K, 101 kPa, x2 = 0.951): 6.52 ± 0.33 S/m
electrical conductivity (317.15 K, 101 kPa, x2 = 0.968): 5.83 ± 0.29 S/m
electrical conductivity (318.15 K, 101 kPa, x2 = 0.929): 5.89 ± 0.29 S/m
electrical conductivity (319.15 K, 101 kPa, x2 = 0.861): 4.14 ± 0.21 S/m
electrical conductivity (319.15 K, 101 kPa, x2 = 0.968): 6.08 ± 0.3 S/m
electrical conductivity (320.15 K, 101 kPa, x1 = 0.004): 1.79 ± 0.09 S/m
electrical conductivity (320.15 K, 101 kPa, x1 = 0.019): 5.15 ± 0.26 S/m
electrical conductivity (320.15 K, 101 kPa, x2 = 0.892): 5.23 ± 0.26 S/m
electrical conductivity (320.15 K, 101 kPa, x2 = 0.968): 6.17 ± 0.31 S/m
electrical conductivity (321.15 K, 101 kPa, x2 = 0.968): 6.3 ± 0.32 S/m
electrical conductivity (322.15 K, 101 kPa, x2 = 0.892): 5.48 ± 0.27 S/m
electrical conductivity (322.15 K, 101 kPa, x2 = 0.929): 6.42 ± 0.32 S/m
viscosity (323.15 K, 101 kPa, x2 = 0.8015): 6.16 ± 0.43 mPa·s
viscosity (323.15 K, 101 kPa, x2 = 0.9503): 1.503 ± 0.071 mPa·s
electrical conductivity (323.15 K, 101 kPa, x2 = 0.951): 7.08 ± 0.35 S/m
electrical conductivity (324.15 K, 101 kPa, x1 = 0.004): 1.91 ± 0.096 S/m
electrical conductivity (324.15 K, 101 kPa, x1 = 0.008): 3.39 ± 0.17 S/m
electrical conductivity (324.15 K, 101 kPa, x1 = 0.019): 5.48 ± 0.27 S/m
electrical conductivity (324.15 K, 101 kPa, x2 = 0.892): 5.72 ± 0.29 S/m
electrical conductivity (325.15 K, 101 kPa, x1 = 0.008): 3.45 ± 0.17 S/m
electrical conductivity (325.15 K, 101 kPa, x1 = 0.019): 5.57 ± 0.28 S/m
electrical conductivity (325.15 K, 101 kPa, x2 = 0.929): 6.93 ± 0.35 S/m
electrical conductivity (326.15 K, 101 kPa, x1 = 0.004): 1.98 ± 0.099 S/m
electrical conductivity (326.15 K, 101 kPa, x2 = 0.929): 6.92 ± 0.35 S/m
electrical conductivity (326.15 K, 101 kPa, x2 = 0.968): 6.88 ± 0.34 S/m
electrical conductivity (327.15 K, 101 kPa, x2 = 0.861): 5.02 ± 0.25 S/m
electrical conductivity (327.15 K, 101 kPa, x2 = 0.929): 7.05 ± 0.35 S/m
electrical conductivity (328.15 K, 101 kPa, x1 = 0.019): 5.74 ± 0.29 S/m
electrical conductivity (328.15 K, 101 kPa, x2 = 0.951): 7.6 ± 0.38 S/m
electrical conductivity (329.15 K, 101 kPa, x2 = 0.968): 7.25 ± 0.36 S/m
electrical conductivity (331.15 K, 101 kPa, x1 = 0.019): 6.08 ± 0.3 S/m
electrical conductivity (331.15 K, 101 kPa, x2 = 0.861): 5.49 ± 0.28 S/m
electrical conductivity (332.15 K, 101 kPa, x2 = 0.929): 7.74 ± 0.39 S/m
electrical conductivity (332.15 K, 101 kPa, x2 = 0.951): 8.16 ± 0.41 S/m
viscosity (333.15 K, 101 kPa, x2 = 0.7014): 8.05 ± 0.39 mPa·s
viscosity (333.15 K, 101 kPa, x2 = 0.8015): 4.67 ± 0.22 mPa·s
viscosity (333.15 K, 101 kPa, x2 = 0.9004): 2.3 ± 0.11 mPa·s
viscosity (333.15 K, 101 kPa, x2 = 0.9503): 1.24 ± 0.058 mPa·s
electrical conductivity (333.15 K, 101 kPa, x2 = 0.968): 7.66 ± 0.38 S/m
electrical conductivity (334.15 K, 101 kPa, x2 = 0.968): 7.78 ± 0.39 S/m
electrical conductivity (335.15 K, 101 kPa, x1 = 0.004): 2.24 ± 0.11 S/m
electrical conductivity (336.15 K, 101 kPa, x1 = 0.004): 2.27 ± 0.11 S/m
electrical conductivity (336.15 K, 101 kPa, x2 = 0.951): 8.7 ± 0.43 S/m
electrical conductivity (337.15 K, 101 kPa, x2 = 0.861): 6.31 ± 0.32 S/m
electrical conductivity (337.15 K, 101 kPa, x2 = 0.929): 8.44 ± 0.42 S/m
electrical conductivity (338.15 K, 101 kPa, x1 = 0.019): 6.52 ± 0.33 S/m
electrical conductivity (338.15 K, 101 kPa, x2 = 0.861): 6.33 ± 0.32 S/m
electrical conductivity (338.15 K, 101 kPa, x2 = 0.951): 8.96 ± 0.45 S/m
electrical conductivity (339.15 K, 101 kPa, x2 = 0.968): 8.41 ± 0.42 S/m
electrical conductivity (341.15 K, 101 kPa, x2 = 0.892): 7.89 ± 0.4 S/m
electrical conductivity (342.15 K, 101 kPa, x1 = 0.004): 2.44 ± 0.12 S/m
electrical conductivity (342.15 K, 101 kPa, x2 = 0.861): 6.89 ± 0.34 S/m
electrical conductivity (342.15 K, 101 kPa, x2 = 0.892): 7.96 ± 0.4 S/m
electrical conductivity (343.15 K, 101 kPa, x1 = 0.004): 2.46 ± 0.12 S/m
viscosity (343.15 K, 101 kPa, x2 = 0.6542): 7.44 ± 0.37 mPa·s
viscosity (343.15 K, 101 kPa, x2 = 0.8521): 2.67 ± 0.13 mPa·s
electrical conductivity (343.15 K, 101 kPa, x2 = 0.892): 8.05 ± 0.4 S/m
electrical conductivity (344.15 K, 101 kPa, x2 = 0.929): 9.45 ± 0.47 S/m
electrical conductivity (345.15 K, 101 kPa, x1 = 0.004): 2.53 ± 0.13 S/m
electrical conductivity (345.15 K, 101 kPa, x2 = 0.951): 10 ± 0.5 S/m
electrical conductivity (345.15 K, 101 kPa, x2 = 0.968): 8.98 ± 0.45 S/m
electrical conductivity (346.15 K, 101 kPa, x1 = 0.008): 4.56 ± 0.23 S/m
electrical conductivity (346.15 K, 101 kPa, x2 = 0.951): 10.1 ± 0.51 S/m
electrical conductivity (347.15 K, 101 kPa, x2 = 0.861): 7.63 ± 0.38 S/m
electrical conductivity (347.15 K, 101 kPa, x2 = 0.892): 8.62 ± 0.43 S/m
electrical conductivity (348.15 K, 101 kPa, x1 = 0.004): 2.61 ± 0.13 S/m
electrical conductivity (348.15 K, 101 kPa, x2 = 0.892): 8.76 ± 0.44 S/m
electrical conductivity (349.15 K, 101 kPa, x2 = 0.861): 7.79 ± 0.39 S/m
electrical conductivity (349.15 K, 101 kPa, x2 = 0.951): 10.6 ± 0.53 S/m
electrical conductivity (350.15 K, 101 kPa, x1 = 0.019): 7.75 ± 0.39 S/m
electrical conductivity (352.15 K, 101 kPa, x1 = 0.019): 7.98 ± 0.4 S/m
electrical conductivity (352.15 K, 101 kPa, x2 = 0.951): 10.9 ± 0.54 S/m
electrical conductivity (353.15 K, 101 kPa, x1 = 0.004): 2.76 ± 0.14 S/m
electrical conductivity (353.15 K, 101 kPa, x2 = 0.861): 8.33 ± 0.42 S/m
electrical conductivity (353.15 K, 101 kPa, x2 = 0.951): 11.1 ± 0.56 S/m
electrical conductivity (354.15 K, 101 kPa, x2 = 0.861): 8.44 ± 0.42 S/m
electrical conductivity (355.15 K, 101 kPa, x1 = 0.004): 2.83 ± 0.14 S/m
electrical conductivity (355.15 K, 101 kPa, x2 = 0.968): 10.3 ± 0.52 S/m
electrical conductivity (356.15 K, 101 kPa, x1 = 0.004): 2.82 ± 0.14 S/m
electrical conductivity (357.15 K, 101 kPa, x1 = 0.004): 2.86 ± 0.14 S/m
electrical conductivity (357.15 K, 101 kPa, x2 = 0.929): 11.3 ± 0.56 S/m
electrical conductivity (357.15 K, 101 kPa, x2 = 0.951): 11.3 ± 0.57 S/m
electrical conductivity (358.15 K, 101 kPa, x2 = 0.892): 10.1 ± 0.51 S/m

O=S(=O)([N-]S(=O)(=O)C(F)(F)F)C(F)(F)F.[Li+] + COC(=O)OC + CCC1COC(=O)O1
viscosity (298.15 K, 100 kPa, x1 = 0.333, x2 = 0.667): 53.7 ± 1.6 mPa·s

CCn1cc[nH+]c1.O=S(=O)([N-]S(=O)(=O)C(F)(F)F)C(F)(F)F + c1c[nH]cn1
electrical conductivity (303.15 K, 100 kPa, x1 = 0.948): 0.427 ± 0.026 S/m
